Measurements published in patent publication US11072585B2 (PharmAkea, Inc., priority 2015, dated 2021).
Where a name gives a salt, the structure may show the parent alone.

Target: human LOXL2 (Homo sapiens (Human), UniProt Q9Y4K0)
Assay: Human LOXL2 amine oxidase activity assay (Amplex Red)
Format: biochemical
Conditions: concentrated conditioned media from CHO cells stably expressing human LOXL2; 2 h at 37° C. with compound; DAP substrate
Experimental: Example B-1: Human LOXL2 Amine Oxidase Activity Assay
LOXL2 amine oxidase activity is evaluated by measuring Amplex Red fluorescence using 10-20× concentrated conditioned media from CHO cells stably expressing human LOXL2. To assay for amine oxidase activity, 10 μL of the concentrated conditioned media is incubated with 2 μL of test compound in DMSO and 73 μL Assay Buffer (50 mM Borate Buffer, pH8) for 2 h at 37° C. After the 2 h incubation, 5 ul of 10 mM 1,5-Diaminopentane (DAP) diluted in Assay Buffer and 10 μl of Amplex Red Mix (8.5 μl Assay Buffer+0.5 μl of 10 mM Amplex Red+1 μl of 500 U/ml Horseradish Peroxidase) are added and the plate mixed and immediately placed on the FlexStaion for fluorescence measurements. Fluorescence is read in kinetic mode every 2 min for 1 hour at excitation=544 and emission=590. The amine oxidase activity is calculated from the slope of the linear portion of the curve.

human LOXL2, sequence (Q9Y4K0 26-774): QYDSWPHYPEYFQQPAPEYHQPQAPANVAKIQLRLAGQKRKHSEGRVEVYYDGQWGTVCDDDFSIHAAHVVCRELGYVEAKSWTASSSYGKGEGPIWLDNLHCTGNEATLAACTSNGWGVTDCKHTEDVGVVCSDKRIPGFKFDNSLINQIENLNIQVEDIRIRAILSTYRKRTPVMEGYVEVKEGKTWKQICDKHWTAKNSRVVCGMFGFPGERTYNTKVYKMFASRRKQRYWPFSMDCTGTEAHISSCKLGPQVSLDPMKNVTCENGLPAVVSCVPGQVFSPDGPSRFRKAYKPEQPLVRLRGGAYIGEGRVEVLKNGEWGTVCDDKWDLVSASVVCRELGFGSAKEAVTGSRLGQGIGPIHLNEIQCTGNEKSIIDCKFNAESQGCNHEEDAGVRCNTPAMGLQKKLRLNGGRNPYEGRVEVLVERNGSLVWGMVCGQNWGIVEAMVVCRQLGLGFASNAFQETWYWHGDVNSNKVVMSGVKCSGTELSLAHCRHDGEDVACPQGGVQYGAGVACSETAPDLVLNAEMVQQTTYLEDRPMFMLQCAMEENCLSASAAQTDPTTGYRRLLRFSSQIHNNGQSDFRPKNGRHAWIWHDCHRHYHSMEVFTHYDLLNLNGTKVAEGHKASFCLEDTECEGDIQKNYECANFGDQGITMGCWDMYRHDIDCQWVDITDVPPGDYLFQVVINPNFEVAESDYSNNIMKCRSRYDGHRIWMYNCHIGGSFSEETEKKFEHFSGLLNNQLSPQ

Molecule	IC50 [µM]
CS(=O)(=O)CCNC(=O)c1cncc(Oc2cc(CN)cc(C(F)(F)F)n2)c1 [Compound 1-53, 5-((4-(Aminomethyl)-6-(trifluoromethyl)pyridin-2-yl)oxy)-N-(2-(methylsulfonyl)ethyl)nicotinamide hydrochloride]	< 0.3
CS(=O)(=O)CCNC(=O)c1cccc(CNc2cc(CN)cc(C(F)(F)F)n2)c1 [Compound 1-106, 3-(((4-(Aminomethyl)-6-(trifluoromethyl)pyridin-2-yl)amino)methyl)-N-(2-(methylsulfonyl)ethyl)benzamide hydrochloride]	< 0.3
NCc1cc(Oc2cccc(C(=O)N3CC[C@@H](N)C3)c2)nc(C(F)(F)F)c1 [Compound 1-22, (R)-(3-((4-(Aminomethyl)-6-(trifluoromethyl)pyridin-2-yl)oxy)phenyl)(3-aminopyrrolidin-1-yl)methanone dihydrochloride]	< 0.3
NCc1cc(OCC2CCN(C(=O)Nc3ccccc3)CC2)nc(C(F)(F)F)c1 [Compound 1-42, 4-(((4-(Aminomethyl)-6-(trifluoromethyl)pyridin-2-yl)oxy)methyl)-N-phenylpiperidine-1-carboxamide trifluoroacetate]	< 0.3
NCc1cc(OC[C@H]2CCCN(C(=O)Nc3ccccc3)C2)nc(C(F)(F)F)c1 [Compound 1-45, (S)-3-(((4-(Aminomethyl)-6-(trifluoromethyl)pyridin-2-yl)oxy)methyl)-N-phenylpiperidine-1-carboxamide trifluoroacetate]	0.3 to 1
NCc1cc(Oc2cccc(C(=O)NCCn3cncn3)c2)nc(C(F)(F)F)c1 [Compound 1-14, N-(2-(1H-1,2,4-Triazol-1-yl)ethyl)-3-((4-(aminomethyl)-6-(trifluoromethyl)pyridin-2-yl)oxy)benzamide hydrochloride]	< 0.3
Cc1cc(=O)oc2cc(NC(=O)c3cccc(Oc4cc(CN)cc(C(F)(F)F)n4)c3)ccc12 [Compound 1-249, 3-((4-(Aminomethyl)-6-(trifluoromethyl)pyridin-2-yl)oxy)-N-(4-methyl-2-oxo-2H-chromen-7-yl)benzamide hydrochloride]	< 0.3
NCc1cc(Oc2cccc(-n3ccccc3=O)c2)nc(C(F)(F)F)c1 [Compound 1-169, 1-(3-((4-(Aminomethyl)-6-(trifluoromethyl)pyridin-2-yl)oxy)phenyl)pyridin-2(1H)-one]	< 0.3
NCc1cc(Oc2cccc(C(=O)N[C@H]3CCC[C@H]3O)c2)nc(C(F)(F)F)c1 [Compound 1-210, 3-((4-(Aminomethyl)-6-(trifluoromethyl)pyridin-2-yl)oxy)-N-((1S,2R)-2-hydroxycyclopentyl)benzamide hydrochloride]	< 0.3
NCc1cc(Oc2cccc(C(=O)Nc3cncnc3)c2)nc(C(F)(F)F)c1 [Compound 1-226, 3-((4-(Aminomethyl)-6-(trifluoromethyl)pyridin-2-yl)oxy)-N-(pyrimidin-5-yl)benzamide hydrochloride]	< 0.3
COc1cc(Oc2cc(CN)cc(C(F)(F)F)n2)cc(C(=O)N2C[C@@H](O)[C@H](F)C2)c1 (racemic) [Compound 1-232, Racemic-trans-(3-((4-(aminomethyl)-6-(trifluoromethyl)pyridin-2-yl)oxy)-5-methoxyphenyl)(3-fluoro-4-hydroxypyrrolidin-1-yl)methanone hydrochloride]	0.3 to 1
NCc1cc(Oc2cccc(C(=O)N3CC[C@H](O)C3)c2)nc(C(F)(F)F)c1 [Compound 1-17, (S)-(3-((4-(Aminomethyl)-6-(trifluoromethyl)pyridin-2-yl)oxy)phenyl)(3-hydroxypyrrolidin-1-yl)methanone hydrochloride]	< 0.3
NCc1cc(Oc2cccc3c2ccn3CC(=O)N2CCNCC2)nc(C(F)(F)F)c1 [Compound 1-233, 2-(4-((4-(Aminomethyl)-6-(trifluoromethyl)pyridin-2-yl)oxy)-1H-indol-1-yl)-1-(piperazin-1-yl)ethan-1-one dihydrochloride]	0.3 to 1
NCc1cc(O[C@H]2CCN(C(=O)Nc3ccccc3)C2)nc(C(F)(F)F)c1 [Compound 1-40, (S)-3-((4-(Aminomethyl)-6-(trifluoromethyl)pyridin-2-yl)oxy)-N-phenylpyrrolidine-1-carboxamide trifluoroacetate]	< 0.3
NCc1cc(Sc2cccc(C(=O)Nc3ccccc3)c2)nc(C(F)(F)F)c1 [Compound 1-68, 3-((4-(Aminomethyl)-6-(trifluoromethyl)pyridin-2-yl)thio)-N-phenylbenzamide hydrochloride]	< 0.3
N′-(4-(Aminomethyl)-6-(trifluoromethyl)pyridin-2-yl)-N^3-phenylisophthalamide trifluoroacetate [Compound 1-240]	< 0.3
CCOC(=O)CN1C(=O)CCc2c(Oc3cc(CN)cc(C(F)(F)F)n3)cccc21 [Compound 1-235, Ethyl 2-(5-((4-(aminomethyl)-6-(trifluoromethyl)pyridin-2-yl)oxy)-2-oxo-3,4-dihydroquinolin-1(2H)-yl)acetate]	0.3 to 1
NCc1cc(Oc2cccc(C(=O)Nc3ncco3)c2)nc(C(F)(F)F)c1 [Compound 1-227, 3-((4-(Aminomethyl)-6-(trifluoromethyl)pyridin-2-yl)oxy)-N-(oxazol-2-yl)benzamide hydrochloride]	< 0.3
NCc1cc(Oc2cccc(C(=O)NC3(CO)CC3)c2)nc(C(F)(F)F)c1 [Compound 1-31, 3-((4-(Aminomethyl)-6-(trifluoromethyl)pyridin-2-yl)oxy)-N-(1-(hydroxymethyl)cyclopropyl)benzamide hydrochloride]	< 0.3
CONC(=O)c1cccc(Oc2cc(CN)cc(C(F)(F)F)n2)c1 [Compound 1-219, 3-((4-(Aminomethyl)-6-(trifluoromethyl)pyridin-2-yl)oxy)-N-methoxybenzamide hydrochloride]	< 0.3
NCc1cc(Oc2cccc(C(=O)N3CCc4ccccc4C3)c2)nc(C(F)(F)F)c1 [Compound 1-11, (3-((4-(Aminomethyl)-6-(trifluoromethyl)pyridin-2-yl)oxy)phenyl)(3,4-dihydroisoquinolin-2(1H)-yl)methanone hydrochloride]	< 0.3
Cc1cc(=O)n(Cc2cc(CN)cc(C(F)(F)F)n2)c(=O)n1Cc1ccccc1 [Compound 1-134, 3-((4-(Aminomethyl)-6-(trifluoromethyl)pyridin-2-yl)methyl)-1-benzyl-6-methylpyrimidine-2,4(1H,3H)-dione hydrochloride]	< 0.3
NCc1cc(Oc2cc(C(=O)N3C[C@@H](O)[C@H](F)C3)ccc2O)nc(C(F)(F)F)c1 (racemic) [Compound 1-229, Racemic-trans-(3-((4-(aminomethyl)-6-(trifluoromethyl)pyridin-2-yl)oxy)-4-hydroxyphenyl)(3-fluoro-4-hydroxypyrrolidin-1-yl)methanone hydrochloride]	0.3 to 1
NCc1cc(OCc2cccc(C(=O)N3C[C@@H](O)[C@H](F)C3)c2)nc(C(F)(F)F)c1 (racemic) [Compound 1-36, Racemic-trans-(3-(((4-(aminomethyl)-6-(trifluoromethyl)pyridin-2-yl)oxy)methyl)phenyl)(3-fluoro-4-hydroxypyrrolidin-1-yl)methanone hydrochloride]	< 0.3
NCc1cc(Oc2cccc(C(=O)NCCS(N)(=O)=O)c2)nc(C(F)(F)F)c1 [Compound 1-34, 3-((4-(Aminomethyl)-6-(trifluoromethyl)pyridin-2-yl)oxy)-N-(2-sulfamoylethyl)benzamide hydrochloride]	< 0.3
